In patent publication US9073885B2, “Vitamin D3 lactone derivatives” (Teijin Pharma Limited, priority 2003, dated 2015):

Tested on: HL-60 cells
Assay: Vitamin D3 antagonist action: inhibition of HL-60 cell differentiation induced by 1α,25-dihydroxyvitamine D3 (NBT reducing activity)
Assay type: cell-based
Settings: Homo sapiens, HL-60, 96 h, inhibition of NBT reducing activity induced by 1×10^-8 M 1α,25-dihydroxyvitamine D3, 4 days
Source text: The Vitamin D3 Antagonist Action Determined by Using the Induction of HL-60 Cell Differentiation by 1α,25-dihydroxyvitamine D3 as an Indicator
(1) HL-60 cells that were purchased from a cell bank (Japanese Cancer Research Resources Bank, Cell No. JCRB0085) were used. The cells were maintained as a frozen preservation stock to prevent changes in cellular characteristics by subculture. The stock was thawed before starting the experiment, and the cells which subsequently initiated subculture were used. The cells with subcultivation approximately over one month to a half year were used for the experiment. The subcultivation was performed by first centrifuging and collecting cells in suspension culture, and then diluting the collected cells by approximately a factor of 100 to a concentration of 1×10^4 to 2×10^4 cells/ml in a fresh culture medium. An RPMI-1640 medium with 10% fetal bovine serum was used as the culture medium. […]
(3) The induction of nitroblue tetrazolium (hereinafter referred to as NBT) reducing activity was used as an indicator of the induction of HL-60 cell differentiation. The NBT reducing activity was measured according to the procedures described below. […]

IC50: < 10 nM
Structure (SMILES): C=C1C(=O)OC(C[C@@H](C)[C@H]2CC[C@H]3/C(=C/C=C4/C[C@@H](O)C[C@H](O)C4=C)CCC[C@]23C)C1CCO (stereo partly drawn) [Compound No. 114a, 20(R)-(tetrahydro-3-methylene-2-furanone-4-(2-hydroxyethyl)-5-yl)methyl-9,10-secopregna-5(Z),7(E),10(19)-triene-1α,3β-diol]
